For this experiment, the system named is recombinant NL4-3 virus (Renilla luciferase) in MT-2 cells. Description: HIV cell culture assay (antiviral activity, luciferase readout in infected MT-2 cells). The note with it: Renilla. The format is cell-based. The method, boiled down: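 Nef-deleted NL4-3 carrying Renilla luciferase, produced by 293T transfection, used to infect MT-2 cells for 4–5 days with serial compound dilutions. Live-cell luciferase signal read as infection marker; EC50 from exponential median-effect equation.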

The mark [1] stands for this setting: NL43, read-out: Activity, antiviral activity class, recombinant NL4-3 Renilla luciferase virus in MT-2 cells.
The mark [2] stands for this setting: NL43, recombinant NL4-3 Renilla luciferase virus in MT-2 cells.

From patent publication US10035760B2, “Inhibitors of human immunodeficiency virus replication” (priority 2013, dated 2018) come the findings set out here.

Read-outs that look alike come from different tables or passages of the source.

Take `Cc1ccccc1S(=O)(=O)NC(=O)N[C@@H](Cc1ccccc1)C(=O)N(C)c1ccc(C#N)cc1` [Example CA-97, (S)—N-(4-cyanophenyl)-N-methyl-3-phenyl-2-(3-(o-tolylsulfonyl)ureido)propanamide]: under setting [1], the EC50 lay within 100 to 1000 nM.

Take `Cc1ccccc1S(=O)(=O)NC(=O)N[C@@H](Cc1ccccc1)C(=O)N(C)c1ccc2cccnc2c1` [Example CA-98, (S)—N-methyl-3-phenyl-N-(quinolin-7-yl)-2-(3-(o-tolylsulfonyl)ureido)propanamide]: the EC50 under setting [1] was 100 to 1000 nM and the EC50 under setting [2] worked out at 120 nM.

In the case of `Cc1ccccc1S(=O)(=O)NC(=O)N[C@@H](Cc1ccccc1)C(=O)N(C)c1ccc2cc[nH]c(=O)c2c1` [Example CA-99, (S)—N-methyl-N-(1-oxo-1,2-dihydroisoquinolin-7-yl)-3-phenyl-2-(3-(o-tolylsulfonyl)ureido)propanamide], the EC50 under setting [1] lay in the range of 1000 to 10000 nM.

Turning to `Cc1ccccc1S(=O)(=O)NC(=O)N[C@@H](Cc1ccccc1)C(=O)N(C)c1ccc(F)c(C(N)=O)c1` [Example CA-100, (S)-2-fluoro-5-(N-methyl-3-phenyl-2-(3-(o-tolylsulfonyl)ureido)propanamido)benzamide], under setting [1], the EC50 lay in the range of 1000 to 10000 nM.

With `Cc1ccccc1S(=O)(=O)NC(=O)N[C@@H](Cc1ccccc1)C(=O)N(C)c1cccc2[nH]cnc12` [Example CA-101, (S)—N-(1H-benzo[d]imidazol-4-yl)-N-methyl-3-phenyl-2-(3-(o-tolylsulfonyl)ureido)propanamide], the EC50 under setting [1] fell in the range of 1000 to 10000 nM.

Consider `Cc1ccccc1S(=O)(=O)NC(=O)N[C@@H](Cc1cc(F)cc(F)c1)C(=O)N(C)c1ccc(F)c(C(N)=O)c1` [Example CA-102, (S)-5-(3-(3,5-difluorophenyl)-N-methyl-2-(3-(o-tolylsulfonyl)ureido)propanamido)-2-fluorobenzamide], for which the EC50 runs as follows: under setting [1], 1000 to 10000 nM; under setting [2], 2580 nM.

Take `Cc1ccccc1S(=O)(=O)NC(=O)N[C@@H](Cc1cc(F)cc(F)c1)C(=O)N(C)c1ccc2cc[nH]c(=O)c2c1` [Example CA-103, (S)-3-(3,5-difluorophenyl)-N-methyl-N-(1-oxo-1,2-dihydroisoquinolin-7-yl)-2-(3-(o-tolylsulfonyl)ureido)propanamide]: the EC50 was 1000 to 10000 nM under setting [1] and 1330 nM under setting [2].

Turning to `Cc1ccccc1S(=O)(=O)NC(=O)N[C@@H](Cc1cc(F)cc(F)c1)C(=O)N(C)c1ccc2cccnc2c1` [Example CA-104, (S)-3-(3,5-difluorophenyl)-N-methyl-N-(quinolin-7-yl)-2-(3-(o-tolylsulfonyl)ureido)propanamide], under setting [1], the EC50 was in the range of 100 to 1000 nM.

With `Cc1ccccc1S(=O)(=O)NC(=O)N[C@@H](Cc1cc(F)cc(F)c1)C(=O)N(C)c1cc2ccccc2cn1` [Example CA-105, (S)-3-(3,5-difluorophenyl)-N-(isoquinolin-3-yl)-N-methyl-2-(3-(o-tolylsulfonyl)ureido)propanamide], the EC50 under setting [1] was 100 to 1000 nM.

For `CNS(=O)(=O)c1cccc(N(C)C(=O)[C@H](Cc2cc(F)cc(F)c2)NC(=O)NS(=O)(=O)c2ccccc2C)c1` [Example CA-106, (S)-3-(3,5-difluorophenyl)-N-methyl-N-(3-(N-methylsulfamoyl)phenyl)-2-(3-(o-tolylsulfonyl)ureido)propanamide], under setting [1], the EC50 lay in the range of 1000 to 10000 nM.

`Cc1ccccc1S(=O)(=O)NC(=O)N[C@@H](Cc1cc(F)cc(F)c1)C(=O)N(C)c1ccccc1F` [Example CA-107, (S)-3-(3,5-difluorophenyl)-N-(2-fluorophenyl)-N-methyl-2-(3-(o-tolylsulfonyl)ureido)propanamide]: the EC50 under setting [1] was in the range of 1000 to 10000 nM.

Regarding `Cc1ccccc1S(=O)(=O)NC(=O)N[C@@H](Cc1cc(F)cc(F)c1)C(=O)N(C)c1ccc(OC(F)(F)F)cc1` [Example CA-108, (S)-3-(3,5-difluorophenyl)-N-methyl-2-(3-(o-tolylsulfonyl)ureido)-N-(4-(trifluoromethoxy)phenyl)propanamide], the EC50 under setting [1] is 100 to 1000 nM.
